Targets include CTX-M-15 (Escherichia coli, UniProt Q9EXV5); OXA-1 (Escherichia coli, UniProt P13661); TEM-1 (Escherichia coli, UniProt P62593); OXA-48 (Klebsiella pneumoniae, UniProt Q6XEC0); SHV-1 (Klebsiella pneumoniae, UniProt P0AD64); KPC-2 (Klebsiella pneumoniae, UniProt Q9F663); OXA-11 (Pseudomonas aeruginosa, UniProt Q06778).
A further assay deals with AmpC (P99) (Enterobacter cloacae, UniProt P05364). Description: biochemical.
A further assay deals with OXA-15 (Pseudomonas aeruginosa, UniProt Q51574). As to the kind of experiment: biochemical.
In a further assay the target is CMY-37 (Citrobacter freundii, UniProt P05193). To be noted: read-out: IC50 β-lactamase CMY-37.
A further assay has as its system K. pneumoniae BAA-1898. Description: MIC of compound alone, broth microdilution. In kind it is cell-based. To be noted: Klebsiella pneumoniae, BAA1898; strain BAA-1898; compound alone; read-out: MIC compounds of the invention alone. The essentials: (§1)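 Step one, log-phase suspension set to 5×10^5 cfu/mL final in CA-MHB. Step two, incubation at 35° C under ambient air for 16-20 h. Step three, visual reading of the lowest growth-free concentration as MIC.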
In general terms: Broth dilution looks for growth in wells or tubes with falling amounts of substance.

Another assay concerns E. coli 190317. As to the kind of experiment: MIC of compound alone, broth microdilution. In kind it is cell-based. To be noted: Escherichia coli; strain 190317; compound alone; read-out: MIC compounds of the invention alone. The essentials:
as §1

A further assay deals with P. aeruginosa CIP107051. Description: MIC of compound alone, broth microdilution. In kind it is cell-based. To be noted: Pseudomonas aeruginosa; strain CIP107051; compound alone; read-out: MIC compounds of the invention alone. The essentials:
as §1

Another assay concerns E. cloacae P99. Description: MIC of compound alone, broth microdilution. To be noted: Enterobacter cloacae; strain P99; compound alone; read-out: MIC compounds of the invention alone. The assay is classed as cell-based. The essentials: as §1
The subject of another assay is K. pneumoniae 6299. Description: MIC of compound alone, broth microdilution. In kind it is cell-based. To be noted: Klebsiella pneumoniae; strain 6299; compound alone; read-out: MIC compounds of the invention alone. The essentials:
as §1

The target in another assay is AmpC (PAE) (Pseudomonas aeruginosa, UniProt P24735). As to the kind of experiment: biochemical.
[1] abbreviates: class (C), nitrocefin 200 μM, 30-min pre-incubation, enzyme 0.2 nM.

Here are results for nine compounds from patent publication US10722520B2, “Heterocyclic compounds and their use in preventing or treating bacterial infections” (MUTABILIS, priority 2016, dated 2020).

pIC50: −log10 of the molar value. Structures can show the parent of a compound that is named as a salt. Where two headings read alike, the source gives them in different places.

What is called pIC50 is −log10 of the IC50, conventionally taken in molar units. In general, MIC refers to the least concentration at which growth counts as inhibited.

As for `O=C(CO)Nc1ccn(C2=CC3CN(C2)C(=O)N3OS(=O)(=O)[O-])n1.[Na+]` (stereo not drawn) [Example 50, sodium [3-[3-[(2-hydroxyacetyl)amino]pyrazol-1-yl]-7-oxo-1,6-diazabicyclo[3.2.1]oct-3-en-6-yl]sulfate], the pIC50 on AmpC (P99) was 7.92; on CTX-M-15 it was 9.23; on OXA-1, 7.10; against TEM-1, 8.92; at OXA-48, 8.24; against OXA-15, 7.22. For the same compound, the pIC50 was 8.25 against SHV-1; 8.23 at CMY-37; 7.17 against AmpC (PAE); 7.92 on KPC-2; 7.96 against OXA-11. Besides, the MIC with K. pneumoniae BAA-1898 is 32 µg/mL; in the assay with E. coli 190317 it was 8 µg/mL; in the assay with P. aeruginosa CIP107051, > 32 µg/mL; with E. cloacae P99 it was 16 µg/mL; in the assay with K. pneumoniae 6299 it was 16 µg/mL.

For `O=C1N2CC(n3ncnn3)=CC(C2)N1OS(=O)(=O)[O-].[Na+]` (stereo not drawn) [Example 44, sodium [7-oxo-3-(tetrazol-2-yl)-1,6-diazabicyclo[3.2.1]oct-3-en-6-yl]sulfate], the pIC50 against AmpC (P99) is 7.89; against CTX-M-15, 9.07; against OXA-1, 7.44; on TEM-1 it was 9.32; against OXA-48, 9.54; at OXA-15 it was 7.49. Further, the pIC50 was 8.48 on SHV-1; 7.59 at CMY-37; 6.82 against AmpC (PAE); 8.14 on KPC-2; 7.70 against OXA-11. In addition, the MIC was 4 µg/mL in the assay on K. pneumoniae BAA-1898; 1 µg/mL in the assay on E. coli 190317; > 32 µg/mL in the assay on P. aeruginosa CIP107051; 4 µg/mL with E. cloacae P99; 4 µg/mL with K. pneumoniae 6299.

With `O=C1N2CC(n3nccc3CCO)=CC(C2)N1OS(=O)(=O)[O-].[Na+]` (stereo not drawn) [Example 68, sodium [3-[5-(2-hydroxyethyl)pyrazol-1-yl]-7-oxo-1,6-diazabicyclo[3.2.1]oct-3-en-6-yl]sulfate], the pIC50 at AmpC (P99) was 6.77; against CTX-M-15, 8.15; against OXA-1, 5.92; on TEM-1, 9.14; on OXA-48 it was 7.31; on OXA-15, 5.39. The pIC50 was 8.55 against SHV-1; 6.89 at CMY-37; 6.37 against AmpC (PAE); 6.52 against KPC-2; 5.41 against OXA-11. Also, the minimal inhibitory concentration (MIC) in the assay with K. pneumoniae BAA-1898, with E. coli 190317, with P. aeruginosa CIP107051, in the assay on E. cloacae P99 and with K. pneumoniae 6299 was > 32 µg/mL throughout.

Take `NC(=O)CONC(=O)c1ccn(C2=CC3CN(C2)C(=O)N3OS(=O)(=O)[O-])n1.[Na+]` (stereo not drawn) [Example 52, sodium [3-[3-[(2-amino-2-oxo-ethoxy)carbamoyl]pyrazol-1-yl]-7-oxo-1,6-diazabicyclo[3.2.1]oct-3-en-6-yl]sulfate]: the pIC50 at AmpC (P99) is 7.80; at CTX-M-15, 9.17; against OXA-1, 6.51; against TEM-1 it was 8.72; against OXA-48, 8.12; on OXA-15, 6.59. For the same compound, the pIC50 at SHV-1 was 8.04; on CMY-37, 8.06; at AmpC (PAE), 6.96; at KPC-2 it was 7.96; against OXA-11, 6.89. Also, the MIC with K. pneumoniae BAA-1898 is 32 µg/mL; with E. coli 190317, 8 µg/mL; in the assay on P. aeruginosa CIP107051, > 32 µg/mL; in the assay with E. cloacae P99, 16 µg/mL; in the assay on K. pneumoniae 6299, 16 µg/mL.

On to `O=C1N2CC(n3cc(F)cn3)=CC(C2)N1OS(=O)(=O)[O-].[Na+]` (stereo not drawn) [Example 14, sodium (7-oxo-3-(4-fluoropyrazol-1-yl)-1,6-diazabicyclo[3.2.1]oct-3-en-6-yl) sulfate], for which the pIC50 was 7.77 on AmpC (P99); 8.74 at CTX-M-15; 7.09 against OXA-1; 9.06 at TEM-1; 8.07 on OXA-48; 7.28 against OXA-15. Further, the pIC50 against SHV-1 is 8.40; at CMY-37 it was 8.00; at AmpC (PAE), 7.68; at KPC-2 it was 7.77; against OXA-11, 7.47. For the same compound, the MIC was 8 µg/mL in the assay on K. pneumoniae BAA-1898; 4 µg/mL in the assay on E. coli 190317; > 32 µg/mL in the assay with P. aeruginosa CIP107051; 16 µg/mL with E. cloacae P99; 16 µg/mL in the assay with K. pneumoniae 6299.

Consider `O=C(NCCN1CCOCC1)c1ccn(C2=CC3CN(C2)C(=O)N3OS(=O)(=O)O)n1` (stereo not drawn) [Example 72, [3-[3-(2-morpholinoethylcarbamoyl)pyrazol-1-yl]-7-oxo-1,6-diazabicyclo[3.2.1]oct-3-en-6-yl]hydrogen sulfate], for which the pIC50 on AmpC (P99) is 7.37; against CTX-M-15 it was 9.24; on OXA-1, 7.00; on TEM-1 it was 9.04; against OXA-48, 8.60; against OXA-15 it was 7.37. Moreover, the pIC50 against SHV-1 was 8.17; on CMY-37 (setting [1]), 7.07; against AmpC (PAE) it was 6.27; at KPC-2, 8.15; against OXA-11, 7.44. Moreover, the minimal inhibitory concentration (MIC) in the assay on K. pneumoniae BAA-1898, in the assay with E. coli 190317, in the assay on P. aeruginosa CIP107051, with E. cloacae P99 and with K. pneumoniae 6299 was > 32 µg/mL throughout.

For the compound `NCCONC(=O)c1cn(C2=CC3CN(C2)C(=O)N3OS(=O)(=O)O)nn1` (stereo not drawn) [Example 63, [3-[4-(2-aminoethoxycarbamoyl)triazol-1-yl]-7-oxo-1,6-diazabicyclo[3.2.1]oct-3-en-6-yl]hydrogen sulfate], the negative-log IC50 (pIC50) on AmpC (P99) was 7.72; on CTX-M-15, 9.28; against OXA-1 it was 7.28; on TEM-1 it was 9.07; on OXA-48, 9.01; on OXA-15, 7.39. The pIC50 at SHV-1 was 8.16; at CMY-37 (setting [1]) it was 7.26; against AmpC (PAE), 6.28; at KPC-2, 8.33; against OXA-11, 6.96. For the same compound, the minimal inhibitory concentration (MIC) was 32 µg/mL in the assay with K. pneumoniae BAA-1898; 8 µg/mL with E. coli 190317; > 32 µg/mL in the assay on P. aeruginosa CIP107051; 16 µg/mL with E. cloacae P99; > 32 µg/mL in the assay with K. pneumoniae 6299.

Take `N#Cc1cnn(C2=CC3CN(C2)C(=O)N3OS(=O)(=O)[O-])c1.[Na+]` (stereo not drawn) [Example 8, sodium [3-(4-cyanopyrazol-1-yl)-7-oxo-1,6-diazabicyclo[3.2.1]oct-3-en-6-yl]sulfate]: the pIC50 against AmpC (P99) is 8.12; at CTX-M-15 it was 9.11; at OXA-1 it was 7.00; against TEM-1 it was 9.46; against OXA-48, 8.46; on OXA-15 it was 8.28. Further, the pIC50 on SHV-1 was 8.60; at CMY-37, 7.80; at AmpC (PAE), 6.85; against KPC-2 it was 8.48; on OXA-11, 7.70. Further, the MIC was > 32 µg/mL in the assay on K. pneumoniae BAA-1898; 8 µg/mL in the assay with E. coli 190317; > 32 µg/mL in the assay with P. aeruginosa CIP107051; > 32 µg/mL in the assay on E. cloacae P99; > 32 µg/mL in the assay with K. pneumoniae 6299.

With `CC(=NOCCN)c1ccn(C2=CC3CN(C2)C(=O)N3OS(=O)(=O)O)n1` (mixture of isomers) [Example 29, (7-oxo-3-(3-[(Z,E)-N-(2-aminoethoxy)-C-methyl-carbonimidoyl]-pyrazol-1-yl)-1,6-diazabicyclo[3.2.1]oct-3-en-6-yl) hydrogen sulfate], the pIC50 on AmpC (P99) was 7.60; on CTX-M-15 it was 9.26; on OXA-1 it was 6.82; on TEM-1, 9.68; on OXA-48 it was 8.52; at OXA-15 it was 7.29. The negative-log IC50 (pIC50) was 8.96 on SHV-1; 7.46 on CMY-37 (setting [1]); 6.72 at AmpC (PAE); 8.06 against KPC-2; 7.51 against OXA-11. Besides, the minimum inhibitory concentration (MIC) in the assay with K. pneumoniae BAA-1898 was 32 µg/mL; in the assay on E. coli 190317 it was 8 µg/mL; in the assay on P. aeruginosa CIP107051, > 32 µg/mL; in the assay on E. cloacae P99 it was 32 µg/mL; with K. pneumoniae 6299, > 32 µg/mL.
